Data: BindingDB's records for doi:10.3109/14756366.2010.504674 (University of Bonn, 2011)

Key:
Assay in all cases: Cholinesterase Inhibition Assay
Details in all cases: pH 7.3; 25 °C
[1] = target: Acetylcholinesterase (Homo sapiens, UniProt P22303)
Method: (§1) Cholinesterase inhibition was assayed spectrophotometrically at 412 nm at 25°C [Pietsch et al., J. Med. Chem., 48:8270-8288; Ellman et al., Biochem. Pharmacol., 7:88-95]. Product formation was monitored over 5 min. Assay buffer was 100 mM sodium phosphate, 100 mM NaCl, pH 7.3. Enzyme stock solutions were prepared with assay buffer in the following concentrations ∼ 100 U/mL (EeAChE),∼ 3 U/mL (hAChE), ∼ 10 U/mL (hBChE), and were kept at 0°C. Appropriate dilutions of the EeAChE (1:30) and hBChE (1:10) solutions were done immediatelybefore starting the measurements. Solutions of ATCh (5, 10, 15, or 20 mM), BTCh (10 mM), and DTNB (7 mM) were prepared in assay buffer and kept at 0°C. Stock solutions of the inhibitors were prepared in acetonitrile. EeAChE was assayed as follows. Into a cuvette containing 830 μL assay buffer, 50 μL of the DTNB solution, 50 μL acetonitrile, 10 μL of an inhibitor solution, and 10 μL of an enzyme solution were added and thoroughly mixed. After incubation for 15 minat 25°C, the reaction was initiated by adding 50 μL of the ATCh solution. The following final concentration were used, ∼ 0.033 U/mL of EeAChE, 250, 500, 750, or 1000 μM of ATCh, 350 μM of DTNB, 6% acetonitrile. Similarly, hAChE (final concentration ∼ 0.03 U/mL) was assayed with 500 μM ATCh, and hBChE (finalconcentration ∼ 0.01 U/mL) with 500 μM BTCh. The rates of enzyme-catalyzed substrate hydrolysis were corrected by those of the non-enzymatic hydrolysis ofATCh or BTCh, respectively, as determined by using 10 μL of assay buffer, instead of the enzyme solution. A Km value of 550 μM19 for the substrate ATCh used in the EeAChE assay was taken for kinetic analyses.

[2] = target: Cholinesterase (Homo sapiens, UniProt P06276)
Method: as §1

[3] = target: Acetylcholinesterase (Electrophorus electricus, UniProt O42275)
Method: as §1

Sequence of Acetylcholinesterase (Electrophorus electricus, UniProt O42275) (O42275 whole entry): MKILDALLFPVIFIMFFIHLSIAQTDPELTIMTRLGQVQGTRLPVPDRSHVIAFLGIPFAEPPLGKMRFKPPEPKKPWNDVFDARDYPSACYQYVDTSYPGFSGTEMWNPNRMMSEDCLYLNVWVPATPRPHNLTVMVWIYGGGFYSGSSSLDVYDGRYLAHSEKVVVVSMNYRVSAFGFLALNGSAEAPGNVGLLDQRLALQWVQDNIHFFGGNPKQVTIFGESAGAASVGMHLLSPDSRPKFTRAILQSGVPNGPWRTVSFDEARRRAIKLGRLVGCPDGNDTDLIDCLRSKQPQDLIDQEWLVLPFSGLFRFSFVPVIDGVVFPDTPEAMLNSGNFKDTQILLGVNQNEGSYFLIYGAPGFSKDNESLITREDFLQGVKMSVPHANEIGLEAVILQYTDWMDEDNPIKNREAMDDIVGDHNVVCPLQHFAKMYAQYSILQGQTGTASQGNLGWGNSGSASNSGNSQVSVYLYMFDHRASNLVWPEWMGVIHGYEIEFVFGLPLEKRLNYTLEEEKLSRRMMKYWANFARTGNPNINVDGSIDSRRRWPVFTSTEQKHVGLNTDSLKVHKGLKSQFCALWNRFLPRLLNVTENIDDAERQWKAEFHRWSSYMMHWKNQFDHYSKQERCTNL
Sequence of Cholinesterase (P06276 whole entry): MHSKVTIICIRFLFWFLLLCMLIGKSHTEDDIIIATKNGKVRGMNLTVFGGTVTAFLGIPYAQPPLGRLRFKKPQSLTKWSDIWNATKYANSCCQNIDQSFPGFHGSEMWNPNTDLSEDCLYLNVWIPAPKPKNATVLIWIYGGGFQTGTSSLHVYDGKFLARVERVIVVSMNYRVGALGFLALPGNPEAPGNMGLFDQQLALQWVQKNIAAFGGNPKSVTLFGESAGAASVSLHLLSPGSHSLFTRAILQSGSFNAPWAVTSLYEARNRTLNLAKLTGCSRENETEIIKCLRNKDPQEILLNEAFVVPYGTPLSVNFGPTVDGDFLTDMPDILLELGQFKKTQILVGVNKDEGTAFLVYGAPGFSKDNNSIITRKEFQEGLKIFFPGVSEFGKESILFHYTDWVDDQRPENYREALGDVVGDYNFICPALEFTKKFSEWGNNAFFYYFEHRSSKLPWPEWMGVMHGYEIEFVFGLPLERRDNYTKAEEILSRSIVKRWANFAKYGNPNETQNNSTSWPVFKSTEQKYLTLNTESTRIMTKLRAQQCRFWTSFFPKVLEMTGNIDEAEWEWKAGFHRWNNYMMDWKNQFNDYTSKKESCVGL
Sequence of Acetylcholinesterase (Homo sapiens, UniProt P22303) (P22303 whole entry): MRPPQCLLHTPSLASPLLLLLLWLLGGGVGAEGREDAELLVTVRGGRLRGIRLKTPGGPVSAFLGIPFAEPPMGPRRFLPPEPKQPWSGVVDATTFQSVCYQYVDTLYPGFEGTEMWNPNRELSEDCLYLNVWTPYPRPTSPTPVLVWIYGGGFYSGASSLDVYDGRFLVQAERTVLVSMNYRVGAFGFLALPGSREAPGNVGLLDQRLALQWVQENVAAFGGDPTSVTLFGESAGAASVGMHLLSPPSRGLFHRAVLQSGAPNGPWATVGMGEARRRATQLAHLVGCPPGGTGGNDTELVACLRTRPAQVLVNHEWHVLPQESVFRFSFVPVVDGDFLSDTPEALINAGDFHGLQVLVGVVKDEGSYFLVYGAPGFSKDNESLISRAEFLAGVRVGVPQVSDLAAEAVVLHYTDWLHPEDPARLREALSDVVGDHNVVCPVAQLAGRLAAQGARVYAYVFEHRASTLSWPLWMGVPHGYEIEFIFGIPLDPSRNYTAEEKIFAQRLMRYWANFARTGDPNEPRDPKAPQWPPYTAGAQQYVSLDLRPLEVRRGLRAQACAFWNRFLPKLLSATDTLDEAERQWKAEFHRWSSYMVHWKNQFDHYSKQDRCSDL

| Compound | IC50 [1] [µM] | IC50 [2] [µM] | IC50 [3] [µM] | Ki [3] [µM] |
| --- | --- | --- | --- | --- |
| C1=Nc2sc3c(c2C2=NCCN12)CCN(Cc1ccccc1)C3 [9-Benzyl-2,3,8,9,10,11-hexahydro-imidazo[1,2-c]pyrido[4′,3′:4,5]thieno[3,2-e]pyrimidine (13)] | 21.8 | 89.9 | 3.09 | 2.36 |
| C1=Nc2sc3c(c2C2=NCCCN12)CCN(Cc1ccccc1)C3 [10-Benzyl-3,4,9,10,11,12-hexahydro-2H-pyrido[4′,3′:4,5]thieno[3,2-e]pyrimido[1,2-c]pyrimidin (14)] | 62.5 | 119 | 1.73 | 1.5 |
| C1=Nc2sc3c(c2C2=NCCN12)CCCC3 [2,3,8,9,10,11-Hexahydro-benzothieno[3,2-e]imidazo[1,2-c]pyrimidine (11)] | 56 | 88 | 1.75 | 1.32 |
| C1=Nc2sc3c(c2C2=NCCCN12)CCCC3 [3,4,9,10,11,12-Hexahydro-2H-benzothieno[3,2-e]pyrimido[1,2-c]pyrimidine (12)] | 20.5 | 131 | 2.26 | 1.92 |
| O=C1c2c(sc3c2CCCC3)NC2=NCCCN12 [2,3,4,7,8,9,10,12-Octahydro-6H-benzothieno[2,3-d]pyrimido[1,2-a]pyrimidin-6-one (8)] | > 200 | > 200 | > 75 |  |
| O=C1c2c(sc3c2CCCC3)NC2=NCCN12 [2,3,6,7,8,9-Hexahydro-benzothieno[2,3-d]-imidazo[1,2-a]pyrimidin-5(11H)-one (7)] | > 200 | > 200 | > 75 |  |
| O=C1c2c(sc3c2CCN(Cc2ccccc2)C3)NC2=NCCN12 [8-Benzyl-2,3,6,7,8,9-hexahydro-imidazo[1,2-a]pyrido[4′,3′:4,5]thieno[2,3-d]pyrimidin-5(11H)-one (9)] | 14.2 | > 200 | 1.35 | 1.55 |
| O=C1c2c(sc3c2CCN(Cc2ccccc2)C3)NC2=NCCCN12 [9-Benzyl-2,3,4,7,8,9,10,12-octahydro-6H-pyrido[4′,3′:4,5]thieno[2,3-d]pyrimido[1,2-a]pyrimidin-6-one (10)] | 5.69 | 51.5 | 1.51 | 2.07 |
